Assays:
[1] = system: six CNS cancer cell line (SF-268, SF-295, SF-539, SNB-19, SNB-75 and U251); test: Anticancer activity, SRB assay, CNS panel; assay type: cell-based, human
Protocol: (§1) Some of biological activity studies were carried out at the National Cancer Institute (NCI), Maryland, USA.
(§2) The compounds were evaluated for anticancer activity against sixty human cancer cells derived from nine cancer types (leukemia cell line, non-small-cell lung cell line, colon cell line, CNS cell line, melanoma cell line, ovarian cell line, prostate cell line, renal cell line and breast cancer cell line) as shown in Table 1. For each compound, dose response curves for each cell line were measured at a minimum of five concentrations at 10 fold dilutions. A protocol of 48 h continuous drug exposure was used and a sulforhodamine B (SRB) protein assay was used to estimate cell viability or growth.

HOP-62 = test: Anticancer activity, SRB assay, non-small lung cell line HOP-62; assay type: cell-based, human; details: Non-small lung HOP-62; 48 h continuous drug exposure; —^b means GI50 values not attained at the concentrations used
Protocol: as §1, §2

K-562 = test: Anticancer activity, SRB assay, leukemia cell line K-562; assay type: cell-based; details: Homo sapiens, K562; Leukemia K-562; 48 h continuous drug exposure; read-out: Growth Inhibition GI50
Protocol: as §1, §2

NCI-H522 = test: Anticancer activity, SRB assay, non-small lung cell line NCI-H522; assay type: cell-based, human; details: Non-small lung NCl-H522; 48 h continuous drug exposure; —^b means GI50 values not attained at the concentrations used
Protocol: as §1, §2

SK-MEL-5 = test: Anticancer activity, SRB assay, melanoma cell line SK-MEL-5; assay type: cell-based; details: Homo sapiens; Melanoma SK-MEL-5; 48 h continuous drug exposure; read-out: Growth Inhibition GI50
Protocol: as §1, §2

MDA-MB-231/ATCC = test: Anticancer activity, SRB assay, breast cell line MDA-MB-231/ATCC; assay type: cell-based; details: Homo sapiens; Breast MDA-MB-231/ATCC; 48 h continuous drug exposure; read-out: Growth Inhibition GI50
Protocol: as §1, §2

HL-60(TB) = test: Anticancer activity, SRB assay, leukemia cell line HL-60(TB); assay type: cell-based; details: Homo sapiens; Leukemia HL-60(TB); 48 h continuous drug exposure; read-out: Growth Inhibition GI50
Protocol: as §1, §2

MOLT-4 = test: Anticancer activity, SRB assay, leukemia cell line MOLT-4; assay type: cell-based; details: Homo sapiens; Leukemia MOLT-4; 48 h continuous drug exposure; read-out: Growth Inhibition GI50
Protocol: as §1, §2

IGROV1 = test: Anticancer activity, SRB assay, ovarian cell line IGROV1; assay type: cell-based, human; details: 48 h continuous drug exposure, —^b means GI50 values not attained at the concentrations used
Protocol: as §1, §2

[2] = system: six breast cancer cell line (MCF-7, MDA-MB-231/ATCC, HS 578T, TD-47D, MDA-MB-468 and BT-549); test: Anticancer activity, SRB assay, breast panel; assay type: cell-based, human
Protocol: as §1, §2

HCT-116 = test: Anticancer activity, SRB assay, colon cell line HCT-116; assay type: cell-based; details: Homo sapiens; Colon HCT-116; 48 h continuous drug exposure; read-out: Growth Inhibition GI50
Protocol: as §1, §2

OVCAR-8 = test: Anticancer activity, SRB assay, ovarian cell line OVCAR-8; assay type: cell-based, human; details: Ovarian OVCAR-8; 48 h continuous drug exposure; —^b means GI50 values not attained at the concentrations used
Protocol: as §1, §2

[3] = system: two prostate cancer cell line (PC-3, DU-145); test: Anticancer activity, SRB assay, prostate panel; assay type: cell-based, human; details: Prostate
Protocol: as §1, §2

RPMI-8226 = test: Anticancer activity, SRB assay, leukemia cell line RPMI-8226; assay type: cell-based; details: Homo sapiens; Leukemia RPMI-8226; 48 h continuous drug exposure; read-out: Growth Inhibition GI50
Protocol: as §1, §2

SF-268 = test: Anticancer activity, SRB assay, CNS cell line SF-268; assay type: cell-based, human; details: CNS SF-268; 48 h continuous drug exposure; —^b means GI50 values not attained at the concentrations used
Protocol: as §1, §2

NCI-H23 = test: Anticancer activity, SRB assay, non-small lung cell line NCI-H23; assay type: cell-based; details: Homo sapiens, Non-small lung NCl-H23, 48 h continuous drug exposure, read-out: Growth Inhibition GI50
Protocol: as §1, §2

A498 = test: Anticancer activity, SRB assay, renal cell line A498; assay type: cell-based, human; details: 48 h continuous drug exposure, —^b means GI50 values not attained at the concentrations used
Protocol: as §1, §2

[4] = system: seven colon cancer cell line (COLO 205, HCC-2998, HCT-116, HCT-15, HT29, KM12 and SW-620); test: Anticancer activity, SRB assay, colon panel; assay type: cell-based, human
Protocol: as §1, §2

NCI-H226 = test: Anticancer activity, SRB assay, non-small lung cell line NCI-H226; assay type: cell-based, human; details: Non-small lung NCl-H226; 48 h continuous drug exposure; —^b means GI50 values not attained at the concentrations used
Protocol: as §1, §2

OVCAR-4 = test: Anticancer activity, SRB assay, ovarian cell line OVCAR-4; assay type: cell-based, human; details: Ovarian OVCAR-4; 48 h continuous drug exposure; —^b means GI50 values not attained at the concentrations used
Protocol: as §1, §2

HS 578T = test: Anticancer activity, SRB assay, breast cell line HS 578T; assay type: cell-based, human; details: Breast HS 578T; 48 h continuous drug exposure; —^b means GI50 values not attained at the concentrations used
Protocol: as §1, §2

SW-620 = test: Anticancer activity, SRB assay, colon cell line SW-620; assay type: cell-based; details: Homo sapiens; Colon SW-620; 48 h continuous drug exposure; read-out: Growth Inhibition GI50
Protocol: as §1, §2

EKVX = test: Anticancer activity, SRB assay, non-small lung cell line EKVX; assay type: cell-based; details: Homo sapiens, 48 h continuous drug exposure, read-out: Growth Inhibition GI50
Protocol: as §1, §2

[5] = system: seven ovarian cancer cell lines (IGROV1, OVCAR-3, OVCAR-4, OVCAR-5, OVCAR-8, NCI/ADR-RES and SK-OV-3); test: Anticancer activity, SRB assay, ovarian panel; assay type: cell-based, human
Protocol: as §1, §2

SN12C = test: Anticancer activity, SRB assay, renal cell line SN12C; assay type: cell-based, human; details: 48 h continuous drug exposure, —^b means GI50 values not attained at the concentrations used
Protocol: as §1, §2

With COc1ccc2cc(C#Cc3ccc(-n4c(/C=C/c5cc(OC)c(OC)c(OC)c5)nc5ccccc5c4=O)c(C)c3)ccc2c1 [Compound 6l, (E)-3-(4-((6-Methoxynaphthalen-2-yl)ethynyl)-2-methylphenyl)-2-(3,4,5-trimethoxystyryl)quinazolin-4(3H)-one] the “mean graph midpoint values (MG_MID) of log10 TGI (Log10TGI50)” value (“mean graph midpoint values … (Log10TGI50)” for short) ([1]; CNS, log value of concentration of the compound resulting in total inhibition of net cell growth) was greater than −4.00, the “mean graph midpoint values (MG_MID) of Log10LC50” value ([1]; CNS, log value of the concentration of compounds leading to 50% net cell death) was greater than −4.00 and the “mean graph midpoint values (MG_MID) of Log10GI50” value ([1]; CNS, log values of concentration in mol/L causing 50% inhibition of net cell growth) was −4.18 mol/L. The GI50 ([1]; Homo sapiens, six CNS cancer cell line, exposure period of at least 48 h, read-out: GI50 (range over the panel)) was 7.4 µM, the “Growth Inhibition GI50” value (HOP-62) was “—^b” and the GI50 (K-562) was 0.882 µM. For the same molecule, the “Growth Inhibition GI50” value (NCI-H522) was “—^b”, the GI50 (SK-MEL-5) was 1.85 µM and the GI50 (MDA-MB-231/ATCC) was 37 µM. The GI50 (HL-60(TB)) was 0.686 µM, the GI50 (MOLT-4) was 4.66 µM and the “Growth Inhibition GI50” value (IGROV1) was “—^b”. For the same molecule, the “mean graph midpoint values … (Log10TGI50)” value ([2]; Breast, log value of concentration of the compound resulting in total inhibition of net cell growth) was greater than −4.00, the “mean graph midpoint values (MG_MID) of Log10LC50” value ([2]; Breast, log value of the concentration of compounds leading to 50% net cell death) was greater than −4.00 and the “mean graph midpoint values (MG_MID) of Log10GI50” value ([2]; Breast, log values of concentration in mol/L causing 50% inhibition of net cell growth) was −4.51 mol/L. The GI50 ([2]; Homo sapiens, six breast cancer cell line, exposure period of at least 48 h, read-out: GI50 (range over the panel)) was 3.8 to 63.8 µM, the GI50 (HCT-116) was 3.53 µM and the “Growth Inhibition GI50” value (OVCAR-8) was “—^b”. For the same molecule, the “mean graph midpoint values … (Log10TGI50)” value ([3]; log value of concentration of the compound resulting in total inhibition of net cell growth) was greater than −4.00, the “mean graph midpoint values (MG_MID) of Log10LC50” value ([3]; log value of the concentration of compounds leading to 50% net cell death) was greater than −4.00 and the “mean graph midpoint values (MG_MID) of Log10GI50” value ([3]; log values of concentration in mol/L causing 50% inhibition of net cell growth) was −4.00 mol/L. The GI50 (RPMI-8226) was 0.821 µM, the “Growth Inhibition GI50” value (SF-268) was “—^b” and the GI50 (NCI-H23) was 40.5 µM. For the same molecule, the “Growth Inhibition GI50” value (A498) was “—^b”, the “mean graph midpoint values … (Log10TGI50)” value ([4]; Colon, log value of concentration of the compound resulting in total inhibition of net cell growth) was greater than −4.00 and the “mean graph midpoint values (MG_MID) of Log10LC50” value ([4]; Colon, log value of the concentration of compounds leading to 50% net cell death) was greater than −4.00. The “mean graph midpoint values (MG_MID) of Log10GI50” value ([4]; Colon, log values of concentration in mol/L causing 50% inhibition of net cell growth) was −5.16 mol/L, the GI50 ([4]; Homo sapiens, seven colon cancer cell line, exposure period of at least 48 h, read-out: GI50 (range over the panel)) was 1.22 to 17.2 µM and the “Growth Inhibition GI50” value (NCI-H226) was “—^b”. The “Growth Inhibition GI50” value (OVCAR-4) was “—^b”, the “Growth Inhibition GI50” value (HS 578T) was “—^b” and the GI50 (SW-620) was 17.2 µM. The GI50 (EKVX) was 24.1 µM, the GI50 ([5]; Homo sapiens, seven ovarian cancer cell lines, exposure period of at least 48 h, read-out: GI50 (range over the panel)) was 19.3 µM and the “mean graph midpoint values … (Log10TGI50)” value ([5]; Ovarian, log value of concentration of the compound resulting in total inhibition of net cell growth) was greater than −4.00. For the same molecule, the “mean graph midpoint values (MG_MID) of Log10LC50” value ([5]; Ovarian, log value of the concentration of compounds leading to 50% net cell death) was greater than −4.00, the “mean graph midpoint values (MG_MID) of Log10GI50” value ([5]; Ovarian, log values of concentration in mol/L causing 50% inhibition of net cell growth) was −4.10 mol/L and the “Growth Inhibition GI50” value (SN12C) was “—^b”.

Source: US8680272B2, “3-arylethynyl substituted quinazolinone compounds” (Council of Scientific & Industrial Research, priority 2011, dated 2014)
